Measurements published in patent US10745346B2, “Agonists of protein tyrosine phosphatase SHP-1” (priority 2015, dated 2020).

What was measured:
[1] = biological target: Recombinant SHP-1 protein (Homo sapiens, UniProt P29350); assay: SHP-1 phosphatase activity assay (RediPlate 96 EnzChek Tyrosine Phosphatase Assay kit); assay type: biochemical; conditions: SC derivatives at 1 μM for 2 hr; recombinant SHP-1 25 ng; control DMSO = 100; mean±SD (N=3)
How it was run: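 Recombinant human SHP-1 (25 ng) was incubated for 2 h with compound at 1 μM, using a DMSO solvent control. Tyrosine phosphatase activity was then measured with the EnzChek kit by absorbance at 465 nm. Values are mean±SD, N=3.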

[2] = tested on: PLC5 cells (a hepatocellular carcinoma cell line); assay: Cytotoxicity, MTT cell viability assay; assay type: cell-based; conditions: 72 h exposure
Description: PLC5 cells (a hepatocellular carcinoma cell line) were seeded at 5×10^3 cells per well in 96-well plates. Then, cells were exposed to SC derivatives at the indicated doses for 72 h. After that, cells were incubated with MTT (1 mg/ml) (Sigma-Aldrich, St. Louis, Mo.) for 2 h at 37° C. Cell viability was then assessed by measuring the absorbance at 570 nm using a microplate reader.

Chain of Recombinant SHP-1 protein (P29350 whole entry): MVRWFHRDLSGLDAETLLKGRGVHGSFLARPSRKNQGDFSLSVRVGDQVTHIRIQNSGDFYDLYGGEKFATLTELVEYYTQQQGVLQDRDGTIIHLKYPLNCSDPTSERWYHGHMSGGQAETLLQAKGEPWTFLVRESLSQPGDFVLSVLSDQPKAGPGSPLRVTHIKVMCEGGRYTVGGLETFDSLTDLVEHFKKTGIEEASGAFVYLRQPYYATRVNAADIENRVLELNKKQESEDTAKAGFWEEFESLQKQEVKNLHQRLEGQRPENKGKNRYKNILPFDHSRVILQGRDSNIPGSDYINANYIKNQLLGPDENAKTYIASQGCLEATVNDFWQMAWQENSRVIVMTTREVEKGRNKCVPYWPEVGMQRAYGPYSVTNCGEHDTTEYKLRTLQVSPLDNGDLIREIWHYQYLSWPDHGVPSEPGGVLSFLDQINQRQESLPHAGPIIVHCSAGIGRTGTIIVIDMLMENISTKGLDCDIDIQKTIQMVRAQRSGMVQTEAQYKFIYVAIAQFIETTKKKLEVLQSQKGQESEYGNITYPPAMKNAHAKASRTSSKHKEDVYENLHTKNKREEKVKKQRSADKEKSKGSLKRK

SHP-1 Activity (% of control) [1]: 353.11 ± 30.81 % of control
Compound: N#Cc1ccc(Oc2ccc(F)c(NC(=O)Nc3cc(C(F)(F)F)cc(C(F)(F)F)c3)c2)cn1 [compound 183, 1-(3,5-bis(trifluoromethyl)phenyl)-3-(5-((6-cyanopyridin-3-yl)oxy)-2-fluorophenyl)urea]
IC50 [2]: 530 nM
